For data set [1], the system named is human breast cancer cell MDA-MB-231. As to the kind of experiment: In vitro antitumor activity on tumor cell lines (CCK-8 method), MDA-MB-231. The data set is classed as cell-based. The conditions noted are these: Homo sapiens, MDA-MB-231, 72 hours. The procedure: (§1) Evaluation of In Vitro Antitumor Activity of Compounds on Multiple Tumor Cell Lines (CCK-8 Method)
(§2) Take the living cells with more than 90% cells for testing. The cell proliferation inhibition test was performed using the EnoGeneCell™ Counting Kit-8 (CK-8) cell viability test kit. The cell was digested, counted and prepared into a cell suspension with a concentration of 1×10^5/mL. 100 μL cell suspension (1×10^4 cells per hole) was added to each hole in the 96-well plate. The 96-well plate was cultured in a 37° C., 5% CO2 incubator for 24 hours. With every hole added with 100 μL respective drugged cultured medium, control groups were set up, including negative control group, solvent control group, and positive control group. Each group has 5 holes. The 96-well plates were cultured at 37° C., in 5% CO2 incubator for 72 hours. Afterward, 10 μL CCK-8 solution was added to each hole, and the culture plate was incubated in the incubator for 4 hours, and the OD value at 450 nm was determined by enzyme labeling instrument. The inhibition rate and IC50 value of these compounds on tumor cells such as human gastric cancer cell MGC-803, human liver cancer cell HepG2, human lung cancer cell A549 and human breast cancer cell MDA-MB-231 were calculated.
(Tetrazolium assays rely on reduction of a dye to a coloured formazan, in cell work by metabolically active cells.)

Data set [2] relates to Hela cervical cancer cell line. As to the kind of experiment: In vitro proliferation inhibition of Hela cervical cancer cell line (MTT method). The data set is classed as cell-based. The conditions noted are these: Homo sapiens, Hela cervical cancer cell line. The procedure: Evaluation of In Vitro Antitumor Activity of Hela Cervical Cancer Tumor Cell Lines with Compounds (MTT Method)
The cells were cultured in RPMI1640 medium containing 200 mL/L fetal bovine serum so that the cells were kept at logarithmic growth. The cells were inoculated to 96-well plate, with a density of 4˜8×10^4/ml, 37° C., and pre-cultured for 24 hours with added drugs. The drugs were set at 6 concentrations, each has 3 holes. After 48 hours of consequent effect, the nutrient solution was then removed and the cells were left for air-drying. Each hole was then added with cold 500 g/L trichloroacetic acid (TCA) 50 μL (final concentration of 100 g/L). After setting for 60 minutes, it was then rinsed for 4-5 times with ionized water and dried. Each hole then was added with 4 g/L SRB 100 μL left for 30 mins. Then it was rinsed with 10 mL/L acetic acid for 4 times, dried. Then 10 mmol Tris-base 200 μL per hole was added, then shaked and mixed, subsequently, oscillating on the plate oscillator for 5 min. The enzyme-linked immunoassay was used to determine the A value. To calibrate, a blank control was used, with a wavelength of 490 nm. Tumor inhibition rate (%)=(Average A value of the control cell hole−Average A value of the drugged hole A)/Average A value of the control cell hole×100%. The positive control cell holes were CA4, CB1, and CB1N. To calculate the IC50 value, the Logit method was used according to the cell growth inhibition rate of different concentrations of the drug.

Data set [3] concerns human lung cancer cell A549. Put plainly: In vitro antitumor activity on tumor cell lines (CCK-8 method), A549. The data set is classed as cell-based. The settings on record: Homo sapiens, A549, 72 hours. The procedure: as §1, §2
The next data set can be described thus: in vivo. The settings on record: both, Kunming, mouse, po.
Data set [4] deals with human gastric cancer cell MGC-803. Put plainly: In vitro antitumor activity on tumor cell lines (CCK-8 method), MGC-803. The data set is classed as cell-based. The conditions noted are these: Homo sapiens, MGC-803, 72 hours. The method, then: as §1, §2
The subject of data set [5] is human liver cancer cell HepG2. As to the kind of experiment: In vitro antitumor activity on tumor cell lines (CCK-8 method), HepG2. Format: cell-based. The conditions noted are these: Homo sapiens, HepG2, 72 hours. The method, then: as §1, §2
For data set [6] the following is noted: single intragastric administration, mice.
Description: (§3) Acute Toxicity Test of Single Gastric Administration in Mice
(§4) Kunming mice (weight 17-22 g, equal male and female) were randomly grouped according to body weight, with 10 mice maximum per dose group in the experiment. […] Given by single intraperitoneal injection and a single intragastric injection, observations were done after 0.25 h, 0.5 h, 1 h, 2 h, 4 h, and 24 h respectively. The mortality rate was recorded. Afterward, the groups were observed once everyday, and the mortality rate was recorded for 14 days. On day 15, the living mice were sacrificed for pathological dissection.
Data set [7] relates to gastric cancer MGC-803 transplanted tumor. Put plainly: Antitumor rate of oral administration in mice with MGC-803 transplanted tumor. The data set is classed as in vivo. The conditions noted are these: for Tumor inhibition rate (%): d0-d12 every 2 days, 7 times, tumor weight; for tumor size course: about 8 days after administration. The procedure: Antitumor rate of oral administration of the compound towards MGC-803 mice with transplanted tumor
After 1 week of adaptation, the mice were inoculated with gastric cancer MGC-803 tumor tissue subcutaneously. After the tumor grew for 100-300 mm^3, the animals were randomly grouped. For the drug group, each group of each compound had 6 mice, and 12 mice were in the control group. The intragastric administration was employed and the dosage of Ii, Ij, Ik and Il was 25 and 50 mg/kg. The positive control was CA4, the administration time was d0, d2, d4, d6, d8, d10, d12 days, 7 times in total. The tumor size was measured 3 times per week, together with mice weight. The mice were executed 14 days after inoculation and the tumor mass was taken and measured for its weight. The tumor inhibition rate was calculated as tumor weight inhibition rate, and the formula is tumor weight inhibition rate %=(1-treatment group average tumor weight/control group average tumor weight)×100%.

The mark [8] stands for this setting: 48 hours drug exposure, read-out: IC50.

Molecules are shown by their SMILES. Where two headings read alike, the source gives them in different places.

Description for in vivo: as §3, §4

The term LD50 denotes the dose at which mortality reaches 50%. Read a high LD50 as a less toxic substance. `COc1ccc(/C=C\c2cc(OC)c(OC)c(OC)c2)cc1O` [CA4, combretastatin A-4, reference compound]: the IC50 in data set [1] stood at 0.0033 µM; in data set [2] (setting [8]), 0.4 µM; in data set [2] (read-out: IC50 values, Hela proliferation inhibition), 0.4 µM; in data set [3], 0.00254 µM; in data set [4] it was 0.0206 µM; in data set [5], 1280 µM. The same molecule had an LD50 in the data set “in vivo” of 1280 mg/kg.

On to `COc1ccc(/C=C\c2cc(OC)c(OC)c(OC)c2)cc1OC(=O)CCn1cc(F)c(=O)[nH]c1=O` [Compound Ik, (Z)-5-(3,4,5-trimethoxystyryl)-2-methoxyphenyl-3-(5-fluoro-2,4-dioxo-3,4-dihydropyrimidin-1(2H)-yl)propanoate], for which the IC50 in data set [1] was 80.7 µM; in data set [2] (setting [8]) it was 0.0296 µM; in data set [3], under 0.0003 µM; in data set [4], under 0.0003 µM; in data set [5], 7.33 µM. The “LD50” value in data set [6] is 1185 mg/kg. Also, the LD50 at 14 days in “in vivo” was over 1000 mg/kg. Moreover, the “Tumor inhibition rate (%)” value is 48% in data set [7] (25 mg/kg intragastric) and 75% in data set [7] (50 mg/kg intragastric). For the same molecule, in data set [7], the tumor size course entry is “tendency to shrink”.

In the case of `COc1ccc(CCc2cc(OC)c(OC)c(OC)c2)cc1OC(=O)CCn1cc(F)c(=O)[nH]c1=O` [Compound Il, 5-(3,4,5-trimethoxyphenethyl)-2-methoxyphenyl-3-(5-fluoro-2,4-dioxo-3,4-dihydropyrimidin-1(2H)-yl)propanoate], the IC50 in data set [1] is 0.00025 µM; in data set [2] (setting [8]) it was 0.0296 µM; in data set [3], under 0.0003 µM; in data set [4] it was under 0.0003 µM; in data set [5], 0.0004 µM. The “LD50” value in data set [6] is recorded as 1228 mg/kg. In “in vivo”, the LD50 at 14 days was over 1000 mg/kg. In addition, the “Tumor inhibition rate (%)” value in data set [7] (25 mg/kg intragastric) came out at 65%; in data set [7] (50 mg/kg intragastric), 90%. The tumor size course entry in data set [7] is on record as “tendency to shrink”.

Values taken from patent publication US11279678B2 (SHANGHAI ECUST BIOMEDICINE CO., LTD., priority 2017, dated 2022).
